Test results as given in patent US20260034112A1, “MULTI-CYCLIC IRAK1 AND IRAK4 INHIBITING COMPOUNDS AND USES THEREOF” (CHILDREN'S HOSPITAL MEDICAL CENTER, priority 2022, published 2026).
Read-outs that look alike come from different tables or passages of the source.

Tested on: THP1 cells
Type: cell-based, human
Conditions: PF-06650833 vs DMSO in THP1 cells

SMILES: CC[C@@H]1[C@H](F)C(=O)N[C@@H]1COc1nccc2cc(C(N)=O)c(OC)cc12 [PF-06650833, Zimlovisertib]
- Log(FC) (gene ACVR1C): −0.6723
- Log(FC) (gene ADPGK-AS1): −0.6683
- Log(FC) (gene ALDH1A3): −0.6705
- Log(FC) (gene APOBR): −0.6497
- Log(FC) (gene APOC1): −0.67
- Log(FC) (gene AQP3): −0.6432
- Log(FC) (gene ARHGAP25): −0.5895
- Log(FC) (gene ARRDC3-AS1): −0.5996
- Log(FC) (gene ASGR2): −0.631
- Log(FC) (gene BMP8B): −0.6206
- Log(FC) (gene BPI): −0.6416
- Log(FC) (gene C1QL4): −0.5987
- Log(FC) (gene C1orf226): −0.604
- Log(FC) (gene C1orf228): −0.634
- Log(FC) (gene C3): −0.6607
- Log(FC) (gene C19orf35): −0.675
- Log(FC) (gene C19orf59): −0.6476
- Log(FC) (gene C20orf197): −0.6914
- Log(FC) (gene CACNA2D3): −0.6049
- Log(FC) (gene CALHM2): −0.6575
- Log(FC) (gene CCDC78): −0.6022
- Log(FC) (gene CCL23): −0.6739
- Log(FC) (gene CD300LB): −0.5972
- Log(FC) (gene CENPH): −0.6701
- Log(FC) (gene DGKG): −0.6202
- Log(FC) (gene EVI2B): −0.6362
- Log(FC) (gene FAM111B): −0.6646
- Log(FC) (gene FAM161B): −0.6003
- Log(FC) (gene FAS): −0.6791
- Log(FC) (gene FAT4): −0.6913
- Log(FC) (gene FMO5): −0.639
- Log(FC) (gene FOS): −0.5974
- Log(FC) (gene FOSL1): −0.6175
- Log(FC) (gene GAPT): −0.6025
- Log(FC) (gene GIPC3): −0.6076
- Log(FC) (gene GNG12): −0.6632
- Log(FC) (gene GPR35): −0.6621
- Log(FC) (gene HSPA1L): −0.6007
- Log(FC) (gene HYDIN2): −0.6113
- Log(FC) (gene IL1R1): −0.6855
- Log(FC) (gene IL16): −0.667
- Log(FC) (gene IQGAP2): −0.5919
- Log(FC) (gene KCNA3): −0.6759
- Log(FC) (gene KIF21B): −0.6912
- Log(FC) (gene KLHL30): −0.6632
- Log(FC) (gene KREMEN2): −0.6258
- Log(FC) (gene LDOC1): −0.6494
- Log(FC) (gene LHFPL2): −0.6019
- Log(FC) (gene LINC01094): −0.6762
- Log(FC) (gene LOC81691): −0.6095
- Log(FC) (gene LOC339862): −0.6552
- Log(FC) (gene LOC100093631): −0.631
- Log(FC) (gene LOC100507642): −0.6508
- Log(FC) (gene LOC101927841): −0.6312
- Log(FC) (gene LOC101929119): −0.6138
- Log(FC) (gene LOC101929545): −0.5904
- Log(FC) (gene LOC102723883): −0.5967
- Log(FC) (gene MPEG1): −0.6879
- Log(FC) (gene MPO): −0.6316
- Log(FC) (gene MPZ): −0.5945
- Log(FC) (gene MTMR11): −0.6705
- Log(FC) (gene MUC19): −0.6358
- Log(FC) (gene NCALD): −0.6
- Log(FC) (gene NHLRC3): −0.66
- Log(FC) (gene NHSL2): −0.639
- Log(FC) (gene NMNAT2): −0.6786
- Log(FC) (gene PAX8): −0.674
- Log(FC) (gene PCED1B-AS1): −0.6355
- Log(FC) (gene PDCD4): −0.6069
- Log(FC) (gene PODNL1): −0.6661
- Log(FC) (gene PRTN3): −0.6776
- Log(FC) (gene PSTPIP1): −0.6238
- Log(FC) (gene RGS3): −0.6231
- Log(FC) (gene RPSAP9): −0.6104
- Log(FC) (gene RSPO1): −0.6269
- Log(FC) (gene S1PR3): −0.6476
- Log(FC) (gene S1PR5): −0.6503
- Log(FC) (gene SCIMP): −0.6308
- Log(FC) (gene SERPINA1): −0.615
- Log(FC) (gene SETBP1): −0.6709
- Log(FC) (gene SIM1): −0.6107
- Log(FC) (gene SLC2A3): −0.6056
- Log(FC) (gene SLC6A11): −0.6327
- Log(FC) (gene SLC9A7): −0.6539
- Log(FC) (gene SNORA73A): −0.6228
- Log(FC) (gene SNX10): −0.6217
- Log(FC) (gene SWT1): −0.6012
- Log(FC) (gene SYN3): −0.6041
- Log(FC) (gene SYTL1): −0.5922
- Log(FC) (gene TACC2): −0.6004
- Log(FC) (gene THBS4): −0.6785
- Log(FC) (gene TLR1): −0.6365
- Log(FC) (gene TMEM45A): −0.5913
- Log(FC) (gene TMEM238): −0.6139
- Log(FC) (gene TNFSF10): −0.6794
- Log(FC) (gene TNS1): −0.6915
- Log(FC) (gene TREM1): −0.6699
- Log(FC) (gene TRIM72): −0.6733
- Log(FC) (gene ZNF630): −0.6307
- Log(FC) (gene ZNF836): −0.606
